According to a melting point compilation (Tetko et al.):

Row | Compound | melting point
1 | ClCCCc1ccccc1 | -27 °C
2 | OC(c1ccccc1)P(c1ccccc1)c1ccccc1 (configuration not stated) | 157 °C
3 | NCC(F)C(=O)O (racemic) | 222 to 223 °C
4 | Fc1cc(Cl)cc(CBr)c1 | 25 to 30 °C
5 | O=C1c2ccccc2C(=O)c2c([N+](=O)[O-])ccc(O)c21 | 273 to 275 °C
6 | Brc1ccc(-c2cnco2)cc1 | 78 to 79 °C
7 | Clc1ccc2c(N3CCNCC3)ccnc2c1 | 113 to 116 °C
8 | C=CC[Si](c1ccccc1)(c1ccccc1)c1ccccc1 | 88 to 90 °C
9 | NC(=O)CS(=O)C(c1ccccc1)c1ccccc1 (configuration not stated) | 164 °C
10 | O=S1(=O)OC(c2cc(Br)c(O)c(Br)c2)(c2cc(Br)c(O)c(Br)c2)c2c(Br)c(Br)c(Br)c(Br)c21 | 203 to 205 °C
11 | C=CCCCCCCCCC=O | 7 °C
12 | N#C/C(=C/c1cccs1)c1nc(-c2ccc(Cl)cc2)cs1 | 170 °C
13 | N#CC(=O)c1ccccc1 | 32.5 °C
14 | O=[N+]([O-])c1ccc(NN=CC2=C(C#Cc3ccccc3)CCCC2)c([N+](=O)[O-])c1 | 198 to 199 °C
15 | COc1cc(OC)nc(NC(=O)NS(=O)(=O)c2ncccc2C(=O)N(C)C)n1 | 145 °C
16 | CC12C=CC3=C4CCC(=O)C=C4CCC3C1CCC2O (configuration not stated) | 93 °C
17 | N#CCc1ccccc1CC#N | 59 °C
18 | CCCCC(CC)COC(C)=O (configuration not stated) | -45 °C

Row | Compound | melting point
19 | c1ccc2c(c1)cc1c3ccccc3c3cccc4ccc2c1c43 | 234 °C
20 | C=C1C2CCC3C(CCC4C5(C)CCCC43C3OCCN3C5)(C2)C1O (configuration not stated) | 120 °C
21 | CC12CCC(CC1)C2(C)C | 158 °C
22 | O=C1OC(c2ccccc2)=NC1=Cc1ccccc1 | 167 °C
23 | Cc1nccc(-c2cccc(S(=O)(=O)Cl)c2)n1 | 174 to 175 °C
24 | FC(F)(F)c1nc2ccccc2[nH]1 | 210 °C
25 | CC(C)(C)OC(=O)N1CCNCC1 | 47 to 49 °C
26 | N#Cc1ccnc(F)c1 | 32 °C
27 | OCCNC(=S)C(=S)NCCO | 93.3 °C
28 | COCCCn1c(-c2ccc(C(C)(C)C)cc2)n[nH]c1=S | 116 to 118 °C
29 | COC(CCl)OC | -73 °C
30 | CCOC(=O)C(=O)CC(C)=O | 16 to 18 °C
31 | CCOC(=O)C(=CNc1cc(C)nn1C)C(=O)OCC | 85 to 88 °C
32 | O=C(O)C1Cc2ccccc2N1C(=O)OCc1ccccc1 (configuration not stated) | 103 to 105 °C
33 | NC(=S)Nc1ccc(F)cc1 | 162 to 167 °C
34 | N#Cc1c(C(F)(F)F)cc(-c2cccnc2)[nH]c1=O | 280 to 281 °C
35 | CNC(=O)Oc1ccc(N(C)C)c(C)c1 | 93.9 °C
36 | CC(OC1C(N)C(O)OC(CO)C1O)C(=O)O (configuration not stated) | 148 °C

The remaining lines, values ahead:

Row | melting point | Compound
37 | 78 °C | ON=C(c1ccccc1)c1ccc(O)cc1
38 | 102 °C | COc1ccc(SCC(=O)O)cc1OC
39 | 136 to 137 °C | NC(=S)c1ccc(C(F)(F)F)cc1
40 | 202 to 205 °C | NC(CS(=O)(=O)c1ccc(Cl)cc1)=NO
41 | 132 °C | CCCC(=O)C=Cc1ccc(O)c(O)c1
42 | 35 °C | COc1ccc(C=O)cc1F
43 | 144 °C | NS(=O)(=O)c1cccc(C(=O)c2ccccc2)c1
44 | 178 to 179 °C | CSc1ncc(C(=O)O)n1Cc1ccccc1
45 | 194 to 196 °C | CC(=O)Oc1ccc2c(c1)c(OC(C)=O)c(-c1ccccc1)n2OC(C)=O
46 | 95.5 °C | O=C(Oc1ccc2ccccc2c1)c1ccccc1O
47 | 48 to 50 °C | CCCc1ccc(C(C)=NO)cc1
48 | 145 to 146 °C | C=CCOc1cc(O)c(C(C)=O)c(O)c1
49 | 143 to 145 °C | O=C(O)CCCn1c(C(F)(F)F)nc2ccccc21
50 | 115 to 118 °C | C=CCc1cc(C(C)=O)ccc1O
51 | 32 °C | OCc1ccc(Br)cc1F
52 | 260 °C | O=C(NNC(=O)c1ccc(Cl)cc1)c1ccc(Cl)cc1
